Earlier results as cited in US11602507B2, “Extended release oral composition of memantine or its salt and its process for the preparation” (TRIKONA PHARMACEUTICALS PVT. LTD, priority 2019, dated 2023).

- solubility in water: highly soluble in water
Structure (SMILES): CC12CC3CC(C)(C1)CC(N)(C3)C2 [Memantine, 1-amino-3,5-dimethyladamantane]
